We go through one compound from patent US20030162187A1, “Method of detecting sexual differentiation disruptor” (priority 1999, published 2003).

The test concerns Qurt medaka. The test is described as follows: Detection of sexual differentiation-disrupting activity: eggs bred in test solution, genotypic sex by pigment, phenotypic sex by RT-PCR of female-specific Gene 5. Type of test: in vivo, medaka (Oryzias latipes). The following applies: fries hatched from eggs treated with 1 ppb 17 β-estradiol. On the procedure: Pairs of mature Qurt medakas each consisting of one male and one female were bred in 3 L of green water (purified water containing chlorella from green algae) at 25° C. under conditions of a light period for 14 hours and a dark period for 10 hours. They were fed with TetraMin three to five times a day setting the amount of TetraMin such that it was consumed within three to five minutes,;and then spawned. Eggs resulted from five pairs were placed in a Petri dish immediately after spawning, separated each other using tweezers in tap water from which chlorine had been removed and washed. The water was replaced by a 1 -ppb 17 β-estradiol (E2) aqueous solution containing 0.1% dimethyl sulfoxide. The mixture was dispensed into wells of 96-well round bottom microplate (#3797, Corning) which had been extensively washed with ultrapure water such that each well contained one egg. After covering with a lid, the microplate was incubated in an incubator at 25° C. On the third day from the start of incubation, males and females were distinguished by examining the yellow pigment which is expressed in a male-specific manner as autofluorescence using a fluorescence microscope (Nikon) The incubation was further continued, and fries then hatched on the 7th to 9th day after spawning. Fries were collected on the 12th day after spawning (the 3rd to 5th day after hatching), then soaked in RNAlater (#7021, Ambion) and stored at −80° C. RNAs were extracted from the fries using StrataPrep Total RNA Miniprep Kit (#400711, Stratagene). The test samples were soaked in a lysis solution attached to the kit, and homogenized in 1.5 -mL tubes using a pellet mixer (Urin Seisakusho). Then, extraction was completed according to the manual attached to the kit. The extracted RNAs were subjected to TaKaRa One Step RNA PCR Kit (AMV) (Takara Shuzo). 1st PCRs were carried out using a pair of primers F1 (SEQ ID NO: 30) and R1 (SEQ ID NO: 31) which is used to amplify a region of 729 bp in Gene 5 (SEQ ID NO: 5), a gene expressed in a female-specific manner. […]

Each structure is given as a SMILES string.

As for `C[C@]12CC[C@@H]3c4ccc(O)cc4CC[C@H]3[C@@H]1CC[C@@H]2O` [17 β-estradiol], the “genotypic females for which expression of Gene 6 was not observed” value is on record as “two out of the five”, the “genotypic males for which expression of Gene 5 was observed” value is reported as “two out of the five” and the “sexual differentiation (genotypic vs phenotypic sex)” value is given as “the sexual differentiation was disrupted”.
